Measured values from patent US20250382332A1, “NOVEL ALPHA-FACTOR BASED PEPTIDES WITH ANTIFUNGAL ACTIVITY” (INVAIO SCIENCES, INC., priority 2024, published 2025).
Peptide text beside a SMILES is read from it.

System: Botrytis cinerea (B05.10)
Test: Resazurin antifungal assay of 180 alpha-factor peptide variants towards Botrytis (Example 2)
Type: cell-based
Conditions: % inhibition of fungal growth, Botrytis conidia, resazurin; for Inhibition at 50 μM: peptide 50 μM; for Inhibition at 100 μM: peptide 100 μM; for Inhibition at 10 μM: peptide 10 μM; for Inhibition at 20 μM: peptide 20 μM
Method in brief: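 B. cinerea B05.10 conidia (5000/well) were exposed to peptides at 100, 50, 20, 15 and 10 μM final for 24 h at 20° C. Resazurin was then added and fluorescence read at 570/620 nm. Percent growth inhibition was calculated against conidia-only wells, with four technical replicates.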

Compound | Inhibition at 50 μM | Inhibition at 100 μM | Inhibition at 10 μM | Inhibition at 20 μM
CSCC[C@H](NC(=O)[C@@H]1CCCN1C(=O)[C@H](CCC(N)=O)NC(=O)CNC(=O)[C@@H]1CCCN1C(=O)[C@H](CCCCN)NC(=O)[C@H](Cc1ccccc1)NC(=O)[C@H](CCC(N)=O)NC(=O)CNC(=O)[C@H](Cc1c[nH]c2ccccc12)NC(=O)[C@H](CO)NC(=O)[C@@H](N)CCCCN)C(=O)N[C@@H](Cc1ccc(O)cc1)C(=O)O [compound 39] (H-KSWGQFKPGQPMY-OH; N-terminus and C-terminus assumed) | <90% | <90% | – | –
CSCC[C@H](NC(=O)[C@@H]1CCCN1C(=O)[C@H](CCC(N)=O)NC(=O)CNC(=O)[C@@H]1CCCN1C(=O)[C@H](CCCCN)NC(=O)[C@H](CC(C)C)NC(=O)[C@H](CO)NC(=O)[C@H](CC(C)C)NC(=O)[C@H](Cc1ccccc1)NC(=O)[C@H](Cc1c[nH]cn1)NC(=O)[C@@H](N)CCCCN)C(=O)N[C@@H](Cc1ccc(O)cc1)C(=O)O [compound 107] (H-KHFLSLKPGQPMY-OH; N-terminus and C-terminus assumed) | <90% | 98.74% | <90% | <90%
CSCC[C@H](NC(=O)[C@@H]1CCCN1C(=O)[C@H](CCC(N)=O)NC(=O)CNC(=O)[C@@H]1CCCN1C(=O)[C@H](CCCCN)NC(=O)[C@H](CC(C)C)NC(=O)[C@H](CCC(=O)O)NC(=O)[C@H](CC(C)C)NC(=O)[C@H](Cc1ccc(O)cc1)NC(=O)[C@H](Cc1c[nH]cn1)NC(=O)[C@@H](N)CCCCN)C(=O)N[C@@H](Cc1ccc(O)cc1)C(=O)O [compound 162] (H-KHYLELKPGQPMY-OH; N-terminus and C-terminus assumed) | <90% | <90% | – | –
CSCC[C@H](NC(=O)[C@@H]1CCCN1C(=O)[C@H](CCC(N)=O)NC(=O)CNC(=O)[C@@H]1CCCN1C(=O)[C@H](CCCCN)NC(=O)[C@H](Cc1ccccc1)NC(=O)[C@H](CO)NC(=O)[C@H](CC(C)C)NC(=O)[C@H](Cc1ccc(O)cc1)NC(=O)[C@H](Cc1c[nH]cn1)NC(=O)[C@@H](N)CCCCN)C(=O)N[C@@H](Cc1ccc(O)cc1)C(=O)O [compound 94] (H-KHYLSFKPGQPMY-OH; N-terminus and C-terminus assumed) | 97.32% | 100% | <90% | <90%
CC[C@H](C)[C@H](NC(=O)[C@H](CC(=O)O)NC(=O)[C@H](CCCNC(=N)N)NC(=O)[C@@H](N)Cc1c[nH]c2ccccc12)C(=O)N[C@@H](CCCNC(=N)N)C(=O)N[C@@H](CC(C)C)C(=O)N[C@@H](CCCCN)C(=O)N[C@@H](CCCCN)C(=O)NCC(=O)N[C@@H](CCC(N)=O)C(=O)N1CCC[C@H]1C(=O)N[C@@H](CCSC)C(=O)N[C@@H](Cc1ccc(O)cc1)C(=O)O [compound 79] (H-WRDIRLKKGQPMY-OH; N-terminus and C-terminus assumed) | 100% | 100% | <90% | <90%
CSCC[C@H](NC(=O)[C@@H]1CCCN1C(=O)[C@H](CCC(N)=O)NC(=O)CNC(=O)[C@H](CCCNC(=N)N)NC(=O)[C@H](CCCCN)NC(=O)[C@H](CC(C)C)NC(=O)[C@@H](NC(=O)[C@H](CC(C)C)NC(=O)[C@H](CC(=O)O)NC(=O)[C@H](CCCNC(=N)N)NC(=O)[C@@H]1CCCN1)[C@@H](C)O)C(=O)N[C@@H](Cc1ccc(O)cc1)C(=O)O [compound 141] (H-PRDLTLKRGQPMY-OH; N-terminus and C-terminus assumed) | <90% | <90% | – | –
CC[C@H](C)[C@H](NC(=O)[C@H](CO)NC(=O)[C@H](CCCCN)NC(=O)[C@@H](N)Cc1c[nH]c2ccccc12)C(=O)N[C@@H](CC(N)=O)C(=O)N[C@@H](Cc1ccccc1)C(=O)N[C@@H](CCCCN)C(=O)N1CCC[C@H]1C(=O)NCC(=O)N[C@@H](CCC(N)=O)C(=O)N1CCC[C@H]1C(=O)N[C@@H](CCSC)C(=O)N[C@@H](Cc1ccc(O)cc1)C(=O)O [compound 127] (H-WKSINFKPGQPMY-OH; N-terminus and C-terminus assumed) | <90% | <90% | – | –
